For 18 compounds, ED95 and IC50 results are on record in ChEMBL document CHEMBL1131848, “8-aminoquinolines as anticoccidials - Part III” (Bioorg Med Chem Lett, 1999).

As a reminder, the IC50 is the concentration at which inhibition is half-maximal. Lower therefore signals higher potency.

Assay [1] relates to Eimeria acervulina. Description: In vivo anti-coccidial activity against Eimeria acervulina (chick 7-day coccidiosis model). The assay is classed as functional.
The test system of assay [2] is Eimeria tenella. Description: In vivo anti-coccidial activity against Eimeria tenella (chick 7-day coccidiosis model). Format: functional.
Assay [3] concerns Eimeria tenella. In words: In vitro anti-coccidial activity against chicken hepatocyte Eimeria tenella. Format: functional, organism-based.
Assay [4] deals with Eimeria acervulina. In words: In vitro anti-coccidial activity against chicken hepatocyte Eimeria acervulina. Format: functional, organism-based.

The structures appear in SMILES notation. Converted amounts (≈) assume the structure as drawn.

With `COc1cc(NCCCCCNC2CC[S+]([O-])CC2)c2ncccc2c1` (configuration not stated), the ED95 in the assay on Eimeria acervulina [1] and in the assay on Eimeria tenella [2] was more than 25 p.p.m. in feed in each case. Also, the IC50 in the assay with Eimeria tenella [3] was more than 1 µg/mL; in the assay with Eimeria acervulina [4] it was more than 5 µg/mL.

In the case of `CCNCCCCCNc1cc(OC)cc2cccnc12`, the ED95 with Eimeria acervulina [1] is more than 50 p.p.m. in feed; with Eimeria tenella [2], 6.25 p.p.m. in feed. Moreover, the IC50 in the assay with Eimeria tenella [3] and in the assay with Eimeria acervulina [4] was 0.2 µg/mL (≈ 0.696 µM) in each case.

In the case of `COc1cc(NCCCCCNC2CC2)c2ncccc2c1`, the ED95 in the assay with Eimeria acervulina [1] and in the assay with Eimeria tenella [2] was more than 12.5 p.p.m. in feed in each case. Besides, the IC50 with Eimeria tenella [3] and in the assay with Eimeria acervulina [4] was 0.2 µg/mL (≈ 0.668 µM) in each case.

As to `COc1cc(NCCCCCNCc2ccccc2)c2ncccc2c1`, the ED95 in the assay with Eimeria acervulina [1] and in the assay with Eimeria tenella [2] was more than 25 p.p.m. in feed in each case. Also, the IC50 in the assay on Eimeria tenella [3] and in the assay with Eimeria acervulina [4] was 0.2 µg/mL (≈ 0.572 µM) each time.

In the case of `COc1cc(NCCCCCNC2CCCO2)c2ncccc2c1` (configuration not stated), the ED95 in the assay on Eimeria acervulina [1] and with Eimeria tenella [2] was 12.5 p.p.m. in feed throughout. Further, the IC50 in the assay on Eimeria tenella [3] stood at 0.2 µg/mL (≈ 0.607 µM); in the assay on Eimeria acervulina [4] it was 1 µg/mL (≈ 3.04 µM).

On to `COc1cc(NCCCCCNC2CCOCC2)c2ncccc2c1`, for which the results for the ED95 in the assay with Eimeria acervulina [1] and with Eimeria tenella [2] were 12.5 p.p.m. in feed and 6.25 p.p.m. in feed, respectively. Also, the IC50 in the assay on Eimeria tenella [3] and in the assay with Eimeria acervulina [4] was 0.2 µg/mL (≈ 0.582 µM) each time.

Consider `COc1cc(NCCCCCNC2CCSCC2)c2ncccc2c1`, for which the ED95 in the assay on Eimeria acervulina [1] and in the assay with Eimeria tenella [2] was more than 50 p.p.m. in feed in each case. The IC50 in the assay on Eimeria tenella [3] is 0.2 µg/mL (≈ 0.556 µM); with Eimeria acervulina [4], 1 µg/mL (≈ 2.78 µM).

Consider `COc1cc(NCCCNC(C)C)c2ncccc2c1`, for which the ED95 in the assay with Eimeria acervulina [1] and in the assay on Eimeria tenella [2] was more than 25 p.p.m. in feed in each case. In addition, the IC50 with Eimeria tenella [3] and with Eimeria acervulina [4] was 0.2 µg/mL (≈ 0.732 µM) each time.

Consider `COc1cc(NCc2ccc(NC(C)C)cc2)c2ncccc2c1`, for which the ED95 in the assay on Eimeria acervulina [1] and in the assay with Eimeria tenella [2] was more than 12.5 p.p.m. in feed throughout. For the same compound, the IC50 with Eimeria tenella [3] was more than 1 µg/mL; with Eimeria acervulina [4], 1 µg/mL (≈ 3.11 µM).

As to `COc1cc(NCCNC(C)C)c2ncccc2c1`, the ED95 in the assay on Eimeria acervulina [1] and with Eimeria tenella [2] was more than 25 p.p.m. in feed each time. The values for the IC50 with Eimeria tenella [3] and in the assay with Eimeria acervulina [4] were more than 1 µg/mL and 1 µg/mL (≈ 3.86 µM), respectively.

Turning to `COc1cc(NCCCCCNC2CCCC2)c2ncccc2c1`, the ED95 in the assay with Eimeria acervulina [1] and with Eimeria tenella [2] was more than 25 p.p.m. in feed in each case. Moreover, the IC50 in the assay on Eimeria tenella [3] and with Eimeria acervulina [4] was 0.2 µg/mL (≈ 0.611 µM) in each case.

For `COc1cc(NCCCCCN)c2ncccc2c1`, the ED95 in the assay on Eimeria acervulina [1] and with Eimeria tenella [2] was 100 p.p.m. in feed each time. Also, the half-maximal inhibitory concentration (IC50) in the assay with Eimeria tenella [3] is more than 1 µg/mL; in the assay on Eimeria acervulina [4] it was 1 µg/mL (≈ 3.86 µM).

As to `CCN(CC)CCC[C@H](C)Nc1cc(OC)cc2cccnc12`, the ED95 in the assay with Eimeria acervulina [1] and in the assay on Eimeria tenella [2] was more than 50 p.p.m. in feed each time. In addition, the IC50 is 0.2 µg/mL (≈ 0.634 µM) in the assay with Eimeria tenella [3] and more than 1 µg/mL with Eimeria acervulina [4].

As to `COc1cc(NCCCCCNC(C)(C)C)c2ncccc2c1`, the ED95 with Eimeria acervulina [1] is reported as more than 25 p.p.m. in feed; with Eimeria tenella [2] it was 6.25 p.p.m. in feed. The IC50 in the assay with Eimeria tenella [3] and in the assay on Eimeria acervulina [4] was 0.2 µg/mL (≈ 0.634 µM) in each case.

Regarding `COc1cc(N[C@@H](C)CCCNC(C)C)c2ncccc2c1`, the ED95 in the assay on Eimeria acervulina [1] and in the assay with Eimeria tenella [2] was more than 50 p.p.m. in feed in each case. The IC50 with Eimeria tenella [3] was more than 1 µg/mL; with Eimeria acervulina [4] it was 1 µg/mL (≈ 3.32 µM).

Regarding `COc1cc(NCCCCNC(C)C)c2ncccc2c1`, the ED95 in the assay with Eimeria acervulina [1] and in the assay with Eimeria tenella [2] was 6.25 p.p.m. in feed in each case. In addition, the IC50 with Eimeria tenella [3] and in the assay on Eimeria acervulina [4] was 0.2 µg/mL (≈ 0.696 µM) in each case.

For the compound `N#CC(c1ccc(Cl)cc1)c1c(Cl)cc(-n2ncc(=O)[nH]c2=O)cc1Cl` (configuration not stated) [DICLAZURIL], the ED95 in the assay on Eimeria acervulina [1] and in the assay on Eimeria tenella [2] was 1 p.p.m. in feed in each case. The IC50 with Eimeria tenella [3] and in the assay on Eimeria acervulina [4] was 0.008 µg/mL (≈ 0.0196 µM) throughout.

`COc1cc(NCCCCCNC(C)C)c2ncccc2c1` [PENTAQUINE]: the ED95 in the assay on Eimeria acervulina [1] and in the assay on Eimeria tenella [2] was 12.5 p.p.m. in feed each time. Besides, the IC50 in the assay on Eimeria tenella [3] and in the assay with Eimeria acervulina [4] was 0.2 µg/mL (≈ 0.663 µM) throughout.
